Consider 2 compounds from paper PMC6324813, “Biological evaluation of isoflavonoids from Genista halacsyi using estrogen-target cells: Activities of glucosides compared to aglycones” (PLoS ONE, 2019).

Where only a bound is given, the exact number is not on record here.

Data set [1] deals with MC3T3-E1 cells. As to the kind of experiment: Mineralization of MC3T3-E1 cells, Alizarin red staining. Particulars: DF + E2 1 nM or compound 1 μM; 21 days; DF plus vehicle = 100. Format: cell-based, mouse. How it is done: (§1) Differentiation of MC3T3-E1 cells to osteoblasts has been extensively used to screen for compounds that may promote bone formation. Differentiation of MC3T3-E1 cells was carried out in 96-well plates using 3,300 cells per well and was assessed via induction of, i) Alkaline Phosphatase (AlkP) activity after 6 days of treatment and, ii) mineralization of extracellular matrix after 21 days of treatment. Briefly, 24 h after plating, the cells were incubated with test compounds or vehicle i.e. the compound diluent (0.1% DMSO) and then exposed for 6 days to differentiation medium in presence or absence of differentiation factors (cf. Cell culture) with a change to fresh compounds and medium in 3 days. AlkP activity was assessed at 405 nm in a Safire II microplate reader using as substrate p-nitrophenyl-phosphate (pNPP, Sigma-Aldrich) as already described. Mineralization of MC3T3 cells was assessed by staining with Alizarin red (Fluka). Cells were cultured and treated as described above for 21 days, with media and test compounds changed every 3 days, and calcium phosphate deposition was assayed as described by Gregory et al.. Briefly, the cells were washed twice with PBS and fixed with 70% ethanol for 15 min on ice. The cells were stained with Alizarin red solution (40 mM, pH 4.2) for 30 min at room temperature, washed twice with distilled water and once with PBS. The dye from the stained mineral deposits was extracted with 33% acetic acid and the absorbance was measured at 405 nm using a Safire II microplate reader (Tecan).

Data set [2] concerns RAW 264.7 cells. As to the kind of experiment: Differentiation of RAW 264.7 cells to osteoclasts, TRAP activity. Format: cell-based, mouse. Particulars: RANKL 50 ng/ml + E2 1 nM or compound 1 μM; 3 days; DF plus vehicle = 100. The procedure: Clones of RAW 264.7 cells competent to differentiate to multinuclear osteoclasts upon activation with RANKL provide valuable information on the regulation of osteoclast differentiation. Differentiation-competent RAW cells (ATCC TIB-71) were seeded in 96-well plates at a density of 9,600 cells per well. The cells were plated in the presence of test compounds or compound diluent (0.1% DMSO) and, 4 h after plating, were exposed for 3 days to 50 ng/ml RANKL or to plain medium. Osteoclastic differentiation was assessed via induction of Tartrate-Resistant Acid Phosphatase (TRAP) activity. The cells were washed with PBS and incubated with 25μl lysis buffer (0.4 M NaCl, 25 mM Hepes pH 7.7, 1.5 mM MgCl2, 0.2 mM EDTA, 1% NP40) for 5 min on ice.

The test system of data set [3] is MC3T3-E1 cells. As to the kind of experiment: Differentiation of MC3T3-E1 cells to osteoblasts, AlkP activity. The following applies: DF + E2 1 nM or compound 1 μM; 6 days; DF plus vehicle = 100. In kind it is cell-based, mouse. How it is done: as §1, with “Differentiation” for “Differentiation of MC3T3-E1 cells to osteoblasts has been extensively used to screen for compounds that may promote bone formation. Differentiation”

Data set [4] deals with MCF-7 cells. As to the kind of experiment: MCF-7 cell proliferation (MTT). Format: cell-based, human. Particulars: Homo sapiens, MCF7, 72 h; read-out: Induction of cell proliferation (MCF-7 cells) Agonism at 1μΜ (% of 0.1nM E2). The procedure:
Test compound effects on the proliferation of MCF-7 and MDA-MB-231 cells were assessed as previously described.

The test system of data set [5] is HT22 cells. Description: Glutamate toxicity (oxytosis) of HT22 neuronal cells (MTT). Particulars: 1 nM estradiol or 1 μM compound; for viability of HT22 cells under normal growth conditions compared to vehicle-treated cells: no glutamate; for viability of glutamate-treated HT22 cells (% of glutamate-free cells): 5 mM glutamate 24 h. The procedure:
Glutamate-challenged HT22 cells suffer oxidative stress-induced cell death (oxytosis) within 24 h due to glutathione depletion and consequent massive accumulation of ROS [42]. The efficacy of test compounds to prevent oxytosis of HT22 cells was assessed as already described. Briefly, HT22 cells were plated in 96-well flat bottom plates at a density of 4,000 cells per well in 100 μl of DMEM (low glucose) containing 2% FBS. 24 h after plating, the cells were treated with test compounds or compound diluent (0.1% DMSO) and then challenged with 5 mM glutamate for 24 h. […] Non-challenged cells served to assess test compound effects on cell viability, whereas challenged cells served to assess the neuroprotective activity of test compounds.

For data set [6], the target named is ERβ (Homo sapiens, UniProt Q92731). As to the kind of experiment: ERE-dependent luciferase gene transcription in HEK:ERβ cells. Format: cell-based. The arrangement: expressed in transfected cells; host or cells: HEK-293 (HEK:ERβ clone, with pERE-tk-Luciferase). Particulars: 18 h.
Chain of ERβ (Q92731 whole entry): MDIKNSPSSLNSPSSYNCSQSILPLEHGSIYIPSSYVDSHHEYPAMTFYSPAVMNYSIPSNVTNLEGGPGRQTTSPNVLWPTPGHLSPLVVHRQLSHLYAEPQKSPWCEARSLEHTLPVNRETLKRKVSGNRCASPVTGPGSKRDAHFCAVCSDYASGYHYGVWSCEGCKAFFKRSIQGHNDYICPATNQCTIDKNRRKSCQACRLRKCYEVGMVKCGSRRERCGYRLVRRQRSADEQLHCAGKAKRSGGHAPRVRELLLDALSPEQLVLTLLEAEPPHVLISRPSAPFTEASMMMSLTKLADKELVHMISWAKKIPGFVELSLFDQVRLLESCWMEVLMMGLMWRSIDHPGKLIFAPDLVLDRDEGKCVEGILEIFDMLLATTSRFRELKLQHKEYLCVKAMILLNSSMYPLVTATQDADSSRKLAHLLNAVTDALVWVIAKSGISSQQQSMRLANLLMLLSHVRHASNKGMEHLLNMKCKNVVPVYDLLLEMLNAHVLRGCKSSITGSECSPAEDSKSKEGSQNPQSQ

As to `O=c1c(-c2ccc(OC3O[C@H](CO)[C@@H](O)[C@H](O)[C@H]3O)cc2)coc2cc(OC3O[C@H](CO)[C@@H](O)[C@H](O)[C@H]3O)cc(O)c12` (some centres unmarked) [Compound 11, 7,4΄-di-O-glucopyranosylgenistein], the “Differentiation of MC3T3-E1 cells, Alizarin red staining (%)” value in data set [1] was 120±5%. Besides, the “Differentiation of RAW 267.4 cells, TRAP expression (%)” value in data set [2] is 112±9%. For the same compound, the “Differentiation of MC3T3-E1 cells, AlkP expression (%)” value in data set [3] is 120±6 %. Moreover, the activation at 1 µM in data set [4] amounted to 79 ± 5%; in data set [6] (read-out: Induction of luciferase gene transcription through ERβ, HEK:ERβ cells, Agonism at 1μΜ (% of 0.1nM E2)), 80 ± 20%. Moreover, in data set [5], the “viability of HT22 cells under normal growth conditions compared to vehicle-treated cells” value is reported as “not different”. Moreover, the “viability of glutamate-treated HT22 cells (% of glutamate-free cells)” value in data set [5] is on record as at most 40%.

With `O=c1c(-c2ccc(O)cc2)coc2cc(O[C@@H]3O[C@H](CO)[C@@H](O)[C@H](O)[C@H]3O)cc(O)c12` [Compound 12, 7-O-β-D-glucopyranosyl-genistein], the “Differentiation of MC3T3-E1 cells, Alizarin red staining (%)” value in data set [1] was determined as 137±14%. Also, the “Differentiation of RAW 267.4 cells, TRAP expression (%)” value in data set [2] was found to be 110±5%. Besides, in data set [3], the “Differentiation of MC3T3-E1 cells, AlkP expression (%)” value stood at 125±8 %. Moreover, in data set [4], the activation at 1 µM was determined as 79 ± 9%. Further, in data set [5], the “viability of HT22 cells under normal growth conditions compared to vehicle-treated cells” value was “not different” and the “viability of glutamate-treated HT22 cells (% of glutamate-free cells)” value is at most 40%. Further, the “Induction of luciferase gene transcription through ERβ, HEK:ERβ cells, Agonism at 1μΜ (% of 0.1nM E2)” value in data set [6] (compounds 1 μM, estradiol 0.1 nM) was 121 ± 18 (Full) % of 0.1nM E2.
